In a melting point compilation (Tetko et al.):

SMILES | melting point [°C]
CC(C)(C)OC(=O)N[C@@H]1CCCC[C@H]1N (relative stereo) | 76 to 78
COc1ccc(C#N)cc1CBr | 123 to 125
O=C(c1ccc(O)cc1)N1CCCC1 | 168 to 170
Oc1ccc(-c2nnc[nH]2)cc1 | 244 to 246
CNS(=O)(=O)c1cc(/C=C/C(=O)O)ccc1OC | 238 to 240
CNS(=O)(=O)c1ccc(C(C)N)cc1 (stereo not given) | 104 to 106
Cc1cc(C(=O)CCl)c(C)n1-c1ccc(C(F)(F)F)cc1 | 115 to 117
O=C(O)c1cc(-c2ccccc2)nc2c1cnn2Cc1ccco1 | 242 to 244
CN(C)C(=O)c1ccc(S(N)(=O)=O)cc1 | 206 to 208
O=Cc1ccccc1S(=O)(=O)N1CCOCC1 | 97 to 99
Cc1ccc2c(CC(=O)O)coc2c1 | 140 to 142
Cc1ccc(NC(N)=O)c(C)c1 | 215 to 217
CNC(=O)c1ccn(-c2ccc(N)cc2)n1 | 152 to 154
NNC(=O)C1COc2ccccc2O1 (stereo not given) | 111 to 113
O=C1NC(=O)C2(CCC(c3ccccc3)CC2)N1 (stereo not given) | 250 to 252
Cc1c(C(C)N)cnn1-c1ccc(F)cc1 (stereo not given) | 42 to 44
O=C(O)c1ccccc1NCc1ccco1 | 156 to 158
CCc1cc2oc(=O)cc(CCl)c2cc1Cl | 170 to 172
O=C(NCCO)c1ccncc1 | 136 to 138
CNC(=O)C(Br)Cc1ccccc1 (stereo not given) | 103 to 105
O=C(O)CCCOc1ccc(S(=O)(=O)Cl)cc1Cl | 134 to 136
OCc1cnc(-c2ccccc2)s1 | 72 to 74
O=C(O)C1CC1c1ccc(Cl)c(Cl)c1 (stereo not given) | 141 to 143
N#Cc1cnn2c(O)cc(CCl)nc12 | 369 to 371
Nc1ccc(Oc2ccnc3cc(Cl)ccc23)c(F)c1 | 154 to 156

SMILES | melting point [°C]
NNC(=O)Nc1cc(F)cc(F)c1 | 176 to 178
O=C(Nc1ccccc1)OCCBr | 64 to 66
CC(C)NS(=O)(=O)c1ccccc1C(=O)O | 111 to 113
Cc1nn(C)c(C)c1CC(=O)O | 223 to 225
Cc1ccc(S(C)(=O)=O)cc1C(=O)O | 204 to 206
O=C(O)c1ccc(F)cc1OC(F)F | 115 to 117
O=C(O)c1ccc(S(=O)(=O)Cl)cc1Cl | 133 to 135
NNC(=O)N1CCOCC1 | 121 to 123
O=C(O)c1cnc(Cc2ccccc2)s1 | 199 to 201
O=C(Cc1ccccc1)NC1CCNCC1 | 139 to 141
COc1cccc(-c2nnn[nH]2)c1 | 181 to 183
COc1ccccc1NC(=O)NC1CCNCC1 | 83 to 85
CN1C(=O)CC(C(=O)O)C1c1ccc(C(F)(F)F)cc1 (stereo not given) | 145 to 147
CN(C)CCOc1cc(N)ccn1 | 87 to 89
COC(=O)c1ccc(C=O)o1 | 79 to 81
CC(C)(C)c1ccc2c(c1)C(O)CC2 (stereo not given) | 73 to 75
CSc1ccc(N)cc1Cl | 74 to 76
Cc1cc(C)n(-c2ccc(N)cc2F)n1 | 124 to 126
O=Cc1c[nH]nc1-c1ccccc1F | 114 to 116
COc1ccc(NC(=O)C(C)Cl)c(OC)c1 (stereo not given) | 65 to 67
N#Cc1ccc2[nH]c(=O)[nH]c2c1 | 296 to 298
N#CCCNc1ccc(F)cc1 | 38 to 42
O=C(O)c1cccn(Cc2ccccc2)c1=O | 129 to 131
COc1ccc2c(-c3ccccc3)cc(NN)nc2c1 | 119 to 121
CCOc1ccc(C(=O)O)cc1OC | 198 to 202

SMILES | melting point [°C]
CC(=O)c1nc(-c2ccccc2)cs1 | 77 to 79
Cc1cc(C)c(C#N)c(=S)[nH]1 | 255 to 257
NC(=O)C=Cc1cccnc1 | 149 to 151
NC(=O)c1ccc(F)cc1Br | 163 to 165
NNC(=O)C(=O)Nc1ccccn1 | 179 to 181
CC(=O)c1cnn(C)c1 | 51 to 53
Nc1cccc(NC(=O)C2CCCCC2)c1 | 139 to 141
Nc1ccc(-c2ncno2)cc1 | 99 to 101
O=C(O)c1cccnc1SCC1CCCCC1 | 145 to 147
COc1ccc(C(=O)N2CCCC(C(=O)O)C2)c2ccccc12 (stereo not given) | 255 to 257
O=C(CCl)NC12CC3CC(CC(C3)C1)C2 | 110 to 112
COc1ccc(C(O)c2ccc(OC)cc2C)cc1 (stereo not given) | 71 to 73
Ic1ccc2ncccc2c1 | 86 to 88
CC1CCC(NS(=O)(=O)CC(=O)O)CC1 (stereo not given) | 116 to 118
O=C(CCCl)Nc1ccc(N2CCCC2=O)cc1 | 194 to 196
O=C(O)c1cc(S(=O)(=O)N2CCOCC2)ccc1Br | 188 to 190
Cc1cc(C)c(C(=O)O)c(=O)[nH]1 | 234 to 236
O=c1[nH]c(S)nc2c1cnn2-c1ccccc1 | 110 to 113
Cc1nc2ccccc2c(N)c1C(C)C | 123 to 125
CC(N)c1ccc2c(c1)CC(=O)N2C (stereo not given) | 101 to 103
O=S(=O)(Cl)c1cc2c(cc1Br)OCCCO2 | 105 to 107
CCCCCCCCCCCCSc1nc2sc3c(c2c(=O)n1-c1ccccc1)CCCC3 | 84 to 86
O=C(O)CCOC1CCOCC1 | 54 to 56
NC(=S)COCc1ccccc1 | 43 to 45
O=C(O)CCCN1CCOC1=O | 73 to 75

SMILES | melting point [°C]
Clc1ccc(C2CNCCO2)cc1 (stereo not given) | 55 to 57
Cc1c(Cl)cnc(Cl)c1C#N | 76 to 78
CS(=O)(=O)c1cccc(C(=O)Cl)c1 | 85 to 87
O=[N+]([O-])c1c[nH]nc1-c1ccncc1 | 216 to 218
CC(C)NC(=O)c1ccccc1N | 148 to 150
COc1ccccc1NC(=O)CC1Nc2ccccc2NC1=O (stereo not given) | 172 to 174
Nc1[nH]ncc1CCCO | 88 to 90
Cc1nc(Cl)c(C)c(NN)n1 | 141 to 143
COc1ccc(-c2nnc(N)s2)cc1 | 185 to 187
CCNC(=O)NC(=O)CN(C)Cc1ccccc1 | 62 to 64
O/N=C/c1c(Cl)ncn1-c1ccccc1 | 179 to 181
CSc1nc2ncnc(Cl)c2s1 | 149 to 151
Cn1c(=O)n(CC(=O)O)c2ccccc21 | 202 to 204
NC(=O)CCC1CCNCC1 | 64 to 66
O=C(O)COc1cc(Cl)ccc1Cl | 146 to 148
Cc1nc2ccccc2c2c(N)c3ccccc3n12 | 200 to 202
O=C(O)c1cccc(-n2nccc2C(F)(F)F)c1 | 158 to 160
NC(=O)CCc1ccc(N)cc1 | 131 to 133
Cc1ccc(S(=O)(=O)Nc2cc(Cl)ccc2O)cc1 | 189 to 191
Nc1ccccc1C(=O)NCc1cccnc1 | 119 to 121
O=C(c1cccc([N+](=O)[O-])c1)C(F)(F)F | 53 to 55
CN(CC(=O)O)S(=O)(=O)c1cccnc1 | 175 to 177
O=c1[nH]c(CCl)nc2cc(C(F)(F)F)ccc12 | 209 to 211
CS(=O)(=O)CCOc1cccc(N)c1 | 79 to 81
COc1ccc(NC2=C(Cl)C(=O)N(c3ccc(C)cc3)C2=O)cc1 | 194 to 196

SMILES | melting point [°C]
O=C(c1cccc(F)c1)c1cccc(Cl)c1 | 62 to 64
CC(=O)Nc1ccc(C)cc1O | 170 to 172
Cc1cccc(NS(=O)(=O)c2cc(C(=O)O)c(Cl)cc2Cl)c1 | 172 to 174
COC(C#N)c1ccc([N+](=O)[O-])cc1 (stereo not given) | 42 to 44
O=C(Nc1ccc(Br)cc1)c1cccnc1Cl | 150 to 152
CCC(=CC(=O)O)c1ccccc1 | 92 to 94
O=c1cc(CCl)c2c(ccc3ccccc32)o1 | 119 to 120
O=c1[nH]c2ccc(S(=O)(=O)Cl)cc2[nH]1 | 210 to 212
CS(=O)(=O)c1cc(N)cc(C(=O)O)c1 | 257 to 259
CC(=O)c1ccc(S(=O)(=O)CC(F)F)cc1 | 97 to 99
Cn1cc([N+](=O)[O-])cc1C(=O)NCC(=O)O | 130 to 132
O=C(O)CCn1cnc2ccccc2c1=O | 181 to 183
O=c1[nH]c(=O)n(Cc2ccccc2)c2ncn(C3CCCC3)c12 | 252 to 254
Nc1ccc(Sc2ccccn2)c(Cl)c1 | 110 to 112
Cc1noc(C(C)C)c1C(=O)O | 147 to 151
CC1CCc2c(sc(N)c2C(N)=O)C1 (stereo not given) | 188 to 190
CCS(=O)(=O)c1nc2ccc(N)cc2s1 | 90 to 92
COCCC(=O)Nc1ccc(F)cc1C(=O)O | 110 to 112
NNC(=O)C1Cc2ccccc2O1 (stereo not given) | 150 to 152
NNc1ccc(S(=O)(=O)N2CCCC2)cn1 | 164 to 166
CC(C)(C)c1ccc(C(=O)N2CSCC2C(=O)O)cc1 (stereo not given) | 180 to 182
COCCCC(N)=S | 48 to 50
Cc1ccc(CN)c(S(C)(=O)=O)c1 | 32 to 34
CC(=O)N1CCCNc2ccccc21 | 132 to 134
O=C(O)c1cccc(Cl)c1O | 173 to 175

SMILES | melting point [°C]
Cn1c(=O)n(C)c2cc(Br)ccc21 | 163 to 165
CC(C)(C)OC(=O)N1CCOCC1C(=N)NO (stereo not given) | 154 to 156
CN1C(=O)c2ccc(C(=O)O)cc2C1=O | 173 to 175
N#Cc1cccc(C(=O)NN)c1 | 166 to 168
Cc1c(C(=O)O)c(=O)oc2ccc(Br)cc12 | 179 to 181
O=C(O)CCNS(=O)(=O)c1ccc(OC(F)(F)F)cc1 | 150 to 152
O=C1NCC(=O)N2CCOCC12 (stereo not given) | 170 to 172
CCOC(=O)/C(C#N)=C\Nc1cc(OC)ccc1OC | 131 to 133
COC(=O)c1ccc(F)c(N)c1 | 67 to 69
O=[N+]([O-])c1cccc2c1CCCN2 | 79 to 81
O=C(Nc1cccc(CO)c1)c1ccccc1 | 114 to 116
O=S1CCNc2ccccc21 (stereo not given) | 201 to 203
CN1C(=O)CC(C(=O)O)C1c1ccccc1 (stereo not given) | 126 to 128
Cc1cc(Br)ccc1NC(=O)CCN | 77 to 79
Cc1nnc(CCl)s1 | 76 to 78
CC(C)(C)OC(=O)Nc1cc2c(cc1N)OCO2 | 93 to 95
N#Cc1ccc(CBr)c(OC(F)F)c1 | 80 to 82
Cc1nc(N)c(Cl)cc1Cl | 136 to 138
CCCC1CCc2[nH]c(=O)c(C#N)cc2C1 (stereo not given) | 233 to 235
O=C(CS)Nc1ccccn1 | 93 to 95
